Structures are written as SMILES.

Assay [1] concerns the target T1, His tagged PTPN2 (TC45) protein (Homo sapiens, UniProt P17706).
T1 construct: made in house
T1 sequence (P17706 with tags, fused parts or gaps isoform P17706-2): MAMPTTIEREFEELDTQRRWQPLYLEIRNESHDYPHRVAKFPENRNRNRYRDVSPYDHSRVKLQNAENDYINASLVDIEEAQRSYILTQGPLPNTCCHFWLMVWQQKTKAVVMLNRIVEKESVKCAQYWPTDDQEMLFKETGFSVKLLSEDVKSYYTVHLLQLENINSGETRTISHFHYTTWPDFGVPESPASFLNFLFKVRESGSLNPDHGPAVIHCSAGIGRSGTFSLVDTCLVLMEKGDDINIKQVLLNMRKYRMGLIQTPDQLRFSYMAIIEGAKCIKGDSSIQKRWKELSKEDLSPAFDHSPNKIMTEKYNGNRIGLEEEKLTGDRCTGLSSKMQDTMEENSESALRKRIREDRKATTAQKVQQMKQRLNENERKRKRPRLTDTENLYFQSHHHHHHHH
Briefly: Mobility shift assay (MSA) to determine potency of PTPN2 inhibitors. The class given is biochemical. To be noted: 0.5 nM enzyme, 2 μM substrate. A digest of the protocol:
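His-tagged human PTPN2 (TC45), 0.5 nM, preincubated 10 min at room temperature with compound (12-point, 1:3 dilutions) in HEPES pH 7.5 buffer with EGTA, EDTA, Tween 20 and DTT. Then 2 μM OG488-labelled phospho-insulin-receptor peptide was added for 10 min and quenched. % conversion was read by mobility shift, and IC50 came from % inhibition.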

The target of assay [2] is T2, His tagged full-length PTPN1 protein (Homo sapiens, UniProt P18031).
T2 construct: made in house
T2 sequence (P18031 with tags, fused parts or gaps): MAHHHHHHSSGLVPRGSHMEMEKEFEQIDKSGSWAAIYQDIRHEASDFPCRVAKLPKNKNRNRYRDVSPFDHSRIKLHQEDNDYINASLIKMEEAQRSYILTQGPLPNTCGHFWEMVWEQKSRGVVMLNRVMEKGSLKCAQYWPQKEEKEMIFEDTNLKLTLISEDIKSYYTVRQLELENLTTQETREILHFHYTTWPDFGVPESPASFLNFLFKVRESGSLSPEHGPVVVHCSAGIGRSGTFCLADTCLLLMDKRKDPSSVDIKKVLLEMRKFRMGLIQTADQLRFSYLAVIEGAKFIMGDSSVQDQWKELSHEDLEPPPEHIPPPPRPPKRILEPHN
Briefly: Mobility shift assay (MSA) to determine potency of PTPN1 inhibitors. The class given is biochemical. To be noted: 0.5 nM enzyme, 2 μM substrate. The essentials: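 His-tagged full-length human PTPN1 (0.5 nM) preincubated with compound 10 min at room temperature in pH 7.5 HEPES buffer with EGTA, EDTA, Tween 20 and DTT. Dephosphorylation of 2 μM fluorescent phospho-insulin-receptor peptide over 10 min measured by mobility shift. IC50 from % inhibition across a 12-point, 1:3 dilution series.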

Turning to `Cc1noc(C)c1CCN1CCc2cc(O)c(N3CC(=O)NS3(=O)=O)c(F)c2C1` [Compound 211], the IC50 in assay [1] and in assay [2] was 1 to 10 nM throughout.

Regarding `NCC1(CCN[C@@H]2CCc3cc(O)c(N4CC(=O)NS4(=O)=O)c(F)c3C2)CCC1` [Compound 376, 5-[(7R)-7-({2-[1-(aminomethyl)cyclobutyl]ethyl}amino)-1-fluoro-3-hydroxy-5,6,7,8-tetrahydronaphthalen-2-yl]-1λ^6,2,5-thiadiazolidine-1,1,3-trione], the values for the IC50 in assay [1] and in assay [2] were less than 1 nM and 1 to 10 nM, respectively.

In the case of `O=C1CN(c2c(O)cc3c(c2F)C[C@H](NCc2cccnc2)CC3)S(=O)(=O)N1` [Compound 347, 5-[(7R)-1-fluoro-3-hydroxy-7-{[(pyridin-3-yl)methyl]amino}-5,6,7,8-tetrahydronaphthalen-2-yl]-1λ^6,2,5-thiadiazolidine-1,1,3-trione], the 50% inhibitory concentration (IC50) in assay [1] and in assay [2] was 10 to 100 nM throughout.

Take `CC(C)CCC[C@H]1Cc2c(cc(O)c(N3CC(=O)NS3(=O)=O)c2F)CN1` [Compound 325]: the IC50 in assay [1] and in assay [2] was 1 to 10 nM throughout.

`O=C1CN(c2c(O)cc3c(c2F)CC(CNCCCC2CC2)CC3)S(=O)(=O)N1` (stereo not drawn) [Compound 394, 5-(7-{[(3-cyclopropylpropyl)amino]methyl}-1-fluoro-3-hydroxy-5,6,7,8-tetrahydronaphthalen-2-yl)-1λ^6,2,5-thiadiazolidine-1,1,3-trione]: the IC50 in assay [1] and in assay [2] was 10 to 100 nM in each case.

Take `O=C1CN(c2c(O)cc3c(c2F)C[C@H](NCc2ccnnc2)CC3)S(=O)(=O)N1` [Compound 368, 5-[(7R)-1-fluoro-3-hydroxy-7-{[(pyridazin-4-yl)methyl]amino}-5,6,7,8-tetrahydronaphthalen-2-yl]-1λ^6,2,5-thiadiazolidine-1,1,3-trione]: the concentration for half-maximal inhibition (IC50) in assay [1] and in assay [2] was 10 to 100 nM throughout.

Consider `O=C1CN(c2c(O)cc3c(c2F)CN(CCC2CCOCC2)CC3)S(=O)(=O)N1` [Compound 214], for which the IC50 in assay [1] and in assay [2] was 10 to 100 nM in each case.

Turning to `[2H]C1([2H])Cc2cc(O)c(N3CC(=O)NS3(=O)=O)c(F)c2C([2H])([2H])C1([2H])NCCC(C)C` (stereo not drawn) [Compound 340, 5-{1-fluoro-3-hydroxy-7-[(3-methylbutyl)amino](6,6,7,8,8-^2H5)-5,6,7,8-tetrahydronaphthalen-2-yl}-1λ^6,2,5-thiadiazolidine-1,1,3-trione], the IC50 (as a rule, the concentration that gives 50% inhibition) was less than 1 nM in assay [1] and 1 to 10 nM in assay [2].

With `CC(C)CNC(=O)N1CCc2cc(O)c(N3CC(=O)NS3(=O)=O)c(F)c2C1` [Compound 206], the concentration for half-maximal inhibition (IC50) in assay [1] and in assay [2] was 10 to 100 nM in each case.

With `C[C@H]1Cc2c(cc(O)c(N3CC(=O)NS3(=O)=O)c2F)CN1` [Compound 289], the IC50 is 10 to 100 nM in assay [1] and greater than 100 nM in assay [2].

For `CC(C)CCN[C@@H]1CCc2c(F)c(O)c(N3CC(=O)NS3(=O)=O)c(F)c2C1` [Compound 331, 5-{(7R)-1,4-difluoro-3-hydroxy-7-[(3-methylbutyl)amino]-5,6,7,8-tetrahydronaphthalen-2-yl}-1λ^6,2,5-thiadiazolidine-1,1,3-trione], the half-maximal inhibitory concentration (IC50) in assay [1] and in assay [2] was 1 to 10 nM in each case.

On to `CC(C)CCNC(=O)N1CCc2cc(O)c(N3CC(=O)NS3(=O)=O)c(F)c2C1` [Compound 205], for which the IC50 in assay [1] fell in the range of 1 to 10 nM; in assay [2] it was 10 to 100 nM.

`O=C1CN(c2c(O)cc3c(c2F)CN(CCN2CCNCC2)CC3)S(=O)(=O)N1` [Compound 247]: the 50% inhibitory concentration (IC50) in assay [1] and in assay [2] was 10 to 100 nM in each case.

With `COCCCCN1CCc2cc(O)c(N3CC(=O)NS3(=O)=O)c(F)c2C1` [Compound 293], the concentration for half-maximal inhibition (IC50) in assay [1] and in assay [2] was 10 to 100 nM in each case.

Regarding `NC[C@@H]1Cc2cc(O)c(N3CC(=O)NS3(=O)=O)c(F)c2C1` (single isomer, unassigned) [Compound 408], the IC50 in assay [1] and in assay [2] was 1 to 10 nM throughout.

As to `O=C1CN(c2c(O)cc3c(c2F)CC(NCc2ccccn2)CC3)S(=O)(=O)N1` (stereo not drawn) [Compound 155], the IC50 in assay [1] and in assay [2] was 10 to 100 nM in each case.

Take `Cn1ccc(CN[C@@H]2CCc3cc(O)c(N4CC(=O)NS4(=O)=O)c(F)c3C2)c1` [Compound 346, 5-[(7R)-1-fluoro-3-hydroxy-7-{[(1-methyl-1H-pyrrol-3-yl)methyl]amino}-5,6,7,8-tetrahydronaphthalen-2-yl]-1λ^6,2,5-thiadiazolidine-1,1,3-trione]: the values for the IC50 in assay [1] and in assay [2] were 1 to 10 nM and 10 to 100 nM, respectively.

In the case of `O=C1CN(c2c(O)cc3c(c2F)C[C@H](NCC2CC2(F)F)CC3)S(=O)(=O)N1` (stereo partly drawn) [Compound 362, 5-[(7R)-7-{[(2,2-difluorocyclopropyl)methyl]amino}-1-fluoro-3-hydroxy-5,6,7,8-tetrahydronaphthalen-2-yl]-1λ^6,2,5-thiadiazolidine-1,1,3-trione], the IC50 in assay [1] and in assay [2] was 10 to 100 nM in each case.

As to `Cn1nccc1CNC(=O)N1CCc2cc(O)c(N3CC(=O)NS3(=O)=O)c(F)c2C1` [Compound 272], the half-maximal inhibitory concentration (IC50) in assay [1] and in assay [2] was 10 to 100 nM each time.

Consider `O=C1CN(c2c(O)cc3c(c2F)CNCC3)S(=O)(=O)N1` [Compound 143, 5-(8-fluoro-6-hydroxy-1,2,3,4-tetrahydroisoquinolin-7-yl)-1λ^6,2,5-thiadiazolidine-1,1,3-trione], for which the IC50 in assay [1] was 10 to 100 nM; in assay [2], greater than 100 nM.

Consider `Cc1noc(C)c1CCN1Cc2c(cc(O)c(N3CC(=O)NS3(=O)=O)c2F)C(F)(F)C1` [Compound 306], for which the IC50 in assay [1] and in assay [2] was greater than 100 nM each time.

Regarding `O=C1CN(c2c(O)cc3c(c2F)C[C@H](NCCC2CCOC2)CO3)S(=O)(=O)N1` (stereo partly drawn) [Compound 382, 5-[(3S)-5-fluoro-7-hydroxy-3-{[2-(oxolan-3-yl)ethyl]amino}-3,4-dihydro-2H-1-benzopyran-6-yl]-1λ^6,2,5-thiadiazolidine-1,1,3-trione], the IC50 in assay [1] and in assay [2] was 10 to 100 nM in each case.

For the compound `O=C1CN(c2c(O)cc3c(c2F)CN(CCCC2CCCCC2)CC3)S(=O)(=O)N1` [Compound 286], the concentration for half-maximal inhibition (IC50) in assay [1] and in assay [2] was 1 to 10 nM each time.

As for `O=C1CN(c2c(O)cc3c(c2F)CN(CCC2CCNCC2)CC3)S(=O)(=O)N1` [Compound 230], the half-maximal inhibitory concentration (IC50) in assay [1] was greater than 100 nM; in assay [2], 10 to 100 nM.

Consider `O=C1CN(c2c(O)cc3c(c2F)C[C@H](NCCCC(F)F)CO3)S(=O)(=O)N1` [Compound 373, 5-{(3S)-3-[(4,4-difluorobutyl)amino]-5-fluoro-7-hydroxy-3,4-dihydro-2H-1-benzopyran-6-yl}-1λ^6,2,5-thiadiazolidine-1,1,3-trione], for which the IC50 in assay [1] was in the range of 1 to 10 nM; in assay [2], 10 to 100 nM.

Regarding `Cc1nn(C)c(C)c1CCN1CCc2cc(O)c(N3CC(=O)NS3(=O)=O)c(F)c2C1` [Compound 209], the half-inhibitory concentration (IC50) in assay [1] and in assay [2] was 1 to 10 nM in each case.

For `CC1=C(CCN2CCc3cc(O)c(N4CC(=O)NS4(=O)=O)c(F)c3C2)C(C)(C)CCC1` [Compound 297], the IC50 is less than 1 nM in assay [1] and 1 to 10 nM in assay [2].

With `CC1(C)COC(CCCCN2CCc3cc(O)c(N4CC(=O)NS4(=O)=O)c(F)c3C2)OC1` [Compound 296], the IC50 in assay [1] is 10 to 100 nM; in assay [2], greater than 100 nM.

In the case of `[2H]C1([2H])Cc2cc(O)c(N3CC(=O)NS3(=O)=O)c(F)c2C([2H])([2H])[C@]1([2H])NCCC(C)C` (single isomer, unassigned) [Compound 371], the half-maximal inhibitory concentration (IC50) in assay [1] is less than 1 nM; in assay [2] it was 1 to 10 nM.

Take `O=C1CN(c2c(O)cc3c(c2F)CN(c2ccccn2)CC3)S(=O)(=O)N1` [Compound 191]: the IC50 in assay [1] and in assay [2] was 10 to 100 nM throughout.

As to `O=C1CN(c2c(O)cc3c(c2F)CN(CCCO)CC3)S(=O)(=O)N1` [Compound 244], the half-inhibitory concentration (IC50) in assay [1] and in assay [2] was 10 to 100 nM throughout.

Regarding `O=C1CN(c2c(O)cc3c(c2F)CN(CCCN2CCOCC2)CC3)S(=O)(=O)N1` [Compound 229], the IC50 in assay [1] and in assay [2] was 10 to 100 nM each time.

As for `CC(C)CCC(=O)N1CCc2cc(O)c(N3CC(=O)NS3(=O)=O)c(F)c2C1` [Compound 144], the IC50 in assay [1] was 1 to 10 nM; in assay [2] it was 10 to 100 nM.

For the origin of these results see patent publication US20250122160A1, “PROTEIN TYROSINE PHOSPHATASE INHIBITORS AND METHODS OF USE THEREOF” (Calico Life Sciences LLC, priority 0001, published 2025).
